# Results from publication PMC3849095, “Trans-chalcone and quercetin down-regulate fatty acid synthase gene expression and reduce ergosterol content in the human pathogenic dermatophyte Trichophyton rubrum” (BMC Complementary and Alternative Medicine, 2013).
# Like-named read-outs stand apart in the source and are kept apart here.
# Biological target: T1, Fatty acid synthase (FAS) (Saccharomyces cerevisiae, UniProt P07149+P19097)
# T1 construct: gene FAS1; with FAS2 (alpha subunit of the yeast FAS complex)
# Assay: FAS activity (absorbance at […] nm, malonyl CoA/acetyl CoA/NADPH) in ammonium sulfate-precipitated yeast protein extract
# Format: biochemical
# T1 sequence (P19097 whole entry): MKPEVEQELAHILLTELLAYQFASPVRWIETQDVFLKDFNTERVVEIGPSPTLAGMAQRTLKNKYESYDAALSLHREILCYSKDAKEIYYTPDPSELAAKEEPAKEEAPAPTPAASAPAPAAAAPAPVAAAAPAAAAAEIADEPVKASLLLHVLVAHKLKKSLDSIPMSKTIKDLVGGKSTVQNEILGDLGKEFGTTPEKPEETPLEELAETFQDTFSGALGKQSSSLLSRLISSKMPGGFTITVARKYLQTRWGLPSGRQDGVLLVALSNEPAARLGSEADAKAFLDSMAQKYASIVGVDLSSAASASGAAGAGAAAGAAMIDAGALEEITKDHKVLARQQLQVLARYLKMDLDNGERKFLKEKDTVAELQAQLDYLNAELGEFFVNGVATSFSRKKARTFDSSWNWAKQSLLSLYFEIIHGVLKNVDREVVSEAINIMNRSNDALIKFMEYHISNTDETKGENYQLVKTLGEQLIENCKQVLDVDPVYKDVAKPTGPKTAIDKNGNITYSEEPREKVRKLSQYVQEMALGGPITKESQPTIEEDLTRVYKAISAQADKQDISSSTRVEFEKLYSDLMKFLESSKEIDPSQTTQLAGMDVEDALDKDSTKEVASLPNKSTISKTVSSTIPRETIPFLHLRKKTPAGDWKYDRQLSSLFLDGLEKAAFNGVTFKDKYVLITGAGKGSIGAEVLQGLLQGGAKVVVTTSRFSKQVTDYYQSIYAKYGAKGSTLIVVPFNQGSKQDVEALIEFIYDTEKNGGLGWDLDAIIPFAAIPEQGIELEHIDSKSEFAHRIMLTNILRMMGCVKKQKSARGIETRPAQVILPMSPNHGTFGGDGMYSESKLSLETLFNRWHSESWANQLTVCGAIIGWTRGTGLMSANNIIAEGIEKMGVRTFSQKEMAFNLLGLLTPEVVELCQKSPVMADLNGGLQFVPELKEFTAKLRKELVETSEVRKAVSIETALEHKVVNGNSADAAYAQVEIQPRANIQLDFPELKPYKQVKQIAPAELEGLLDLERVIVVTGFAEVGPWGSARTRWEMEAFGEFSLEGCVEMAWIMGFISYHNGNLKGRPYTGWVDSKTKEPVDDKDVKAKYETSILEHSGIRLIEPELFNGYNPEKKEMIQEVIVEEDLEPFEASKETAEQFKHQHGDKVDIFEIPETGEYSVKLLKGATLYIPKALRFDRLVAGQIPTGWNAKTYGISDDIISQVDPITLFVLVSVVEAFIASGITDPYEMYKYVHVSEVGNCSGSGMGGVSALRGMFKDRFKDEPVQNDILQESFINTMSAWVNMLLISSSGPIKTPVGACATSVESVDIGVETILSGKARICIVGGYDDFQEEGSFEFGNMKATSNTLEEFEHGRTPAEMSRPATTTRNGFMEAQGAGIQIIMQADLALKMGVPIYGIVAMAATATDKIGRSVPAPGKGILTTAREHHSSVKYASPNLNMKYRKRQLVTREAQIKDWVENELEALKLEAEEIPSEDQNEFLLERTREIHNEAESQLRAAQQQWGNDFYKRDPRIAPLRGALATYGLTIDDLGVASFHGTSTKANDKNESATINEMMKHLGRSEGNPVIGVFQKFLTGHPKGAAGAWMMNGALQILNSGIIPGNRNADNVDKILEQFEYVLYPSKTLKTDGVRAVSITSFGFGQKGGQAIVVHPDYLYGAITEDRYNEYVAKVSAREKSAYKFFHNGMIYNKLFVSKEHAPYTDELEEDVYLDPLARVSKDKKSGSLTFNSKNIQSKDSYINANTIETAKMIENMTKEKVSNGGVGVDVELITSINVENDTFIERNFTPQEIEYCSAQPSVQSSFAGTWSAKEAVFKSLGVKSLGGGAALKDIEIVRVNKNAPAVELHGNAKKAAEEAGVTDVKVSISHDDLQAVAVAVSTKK
# T1 sequence (P07149 whole entry): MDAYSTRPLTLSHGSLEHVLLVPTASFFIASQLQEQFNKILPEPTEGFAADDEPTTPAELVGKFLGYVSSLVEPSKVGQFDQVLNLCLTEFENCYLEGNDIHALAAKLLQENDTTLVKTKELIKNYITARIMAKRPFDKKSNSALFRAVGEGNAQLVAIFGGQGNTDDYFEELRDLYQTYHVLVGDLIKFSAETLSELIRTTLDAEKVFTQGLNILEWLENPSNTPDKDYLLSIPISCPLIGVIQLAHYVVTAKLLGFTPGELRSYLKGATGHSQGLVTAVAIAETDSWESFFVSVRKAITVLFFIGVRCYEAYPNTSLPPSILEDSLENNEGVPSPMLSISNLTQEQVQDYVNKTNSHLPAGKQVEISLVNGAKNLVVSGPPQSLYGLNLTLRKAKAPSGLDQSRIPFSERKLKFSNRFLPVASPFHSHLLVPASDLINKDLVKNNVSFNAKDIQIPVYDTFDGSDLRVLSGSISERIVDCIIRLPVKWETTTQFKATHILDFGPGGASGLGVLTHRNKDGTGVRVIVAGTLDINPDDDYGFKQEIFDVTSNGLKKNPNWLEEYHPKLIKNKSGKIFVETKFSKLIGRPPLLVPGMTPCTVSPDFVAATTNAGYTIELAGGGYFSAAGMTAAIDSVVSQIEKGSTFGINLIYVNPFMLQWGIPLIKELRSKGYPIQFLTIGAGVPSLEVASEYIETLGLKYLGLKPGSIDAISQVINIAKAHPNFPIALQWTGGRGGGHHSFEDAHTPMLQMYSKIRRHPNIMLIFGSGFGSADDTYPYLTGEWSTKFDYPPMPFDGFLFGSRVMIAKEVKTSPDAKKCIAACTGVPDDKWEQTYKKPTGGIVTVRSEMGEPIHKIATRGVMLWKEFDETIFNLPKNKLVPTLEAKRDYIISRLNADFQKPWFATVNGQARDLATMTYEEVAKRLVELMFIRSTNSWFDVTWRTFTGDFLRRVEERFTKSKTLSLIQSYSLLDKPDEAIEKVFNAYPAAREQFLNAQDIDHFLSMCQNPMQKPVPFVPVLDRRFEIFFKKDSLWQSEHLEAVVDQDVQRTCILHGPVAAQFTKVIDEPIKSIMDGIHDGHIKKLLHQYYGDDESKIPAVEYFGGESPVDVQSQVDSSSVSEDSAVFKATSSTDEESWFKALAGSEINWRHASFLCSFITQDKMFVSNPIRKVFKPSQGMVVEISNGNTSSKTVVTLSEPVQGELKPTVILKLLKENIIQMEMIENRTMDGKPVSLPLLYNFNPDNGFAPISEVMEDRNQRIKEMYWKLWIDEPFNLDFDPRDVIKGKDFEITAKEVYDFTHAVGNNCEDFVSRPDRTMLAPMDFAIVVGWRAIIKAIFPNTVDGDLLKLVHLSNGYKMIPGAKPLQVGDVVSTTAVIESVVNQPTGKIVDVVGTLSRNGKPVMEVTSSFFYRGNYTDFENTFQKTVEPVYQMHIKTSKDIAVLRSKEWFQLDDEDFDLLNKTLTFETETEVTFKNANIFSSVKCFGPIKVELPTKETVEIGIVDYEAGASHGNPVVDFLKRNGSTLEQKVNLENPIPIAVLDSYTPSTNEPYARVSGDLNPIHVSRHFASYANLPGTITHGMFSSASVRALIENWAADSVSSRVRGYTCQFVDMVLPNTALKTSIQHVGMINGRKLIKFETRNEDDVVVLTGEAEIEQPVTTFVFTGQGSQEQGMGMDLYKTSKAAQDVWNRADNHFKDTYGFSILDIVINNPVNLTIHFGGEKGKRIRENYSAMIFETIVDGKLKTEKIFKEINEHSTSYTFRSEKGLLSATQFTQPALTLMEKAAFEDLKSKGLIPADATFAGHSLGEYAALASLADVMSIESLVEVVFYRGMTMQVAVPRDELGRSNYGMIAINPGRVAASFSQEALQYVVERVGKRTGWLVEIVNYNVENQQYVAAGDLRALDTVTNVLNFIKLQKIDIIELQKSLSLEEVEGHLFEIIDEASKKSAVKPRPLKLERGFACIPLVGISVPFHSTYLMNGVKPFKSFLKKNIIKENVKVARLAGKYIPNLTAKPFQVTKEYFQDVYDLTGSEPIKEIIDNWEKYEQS
Structure (SMILES),IC50 (read-out: IC50 (μg/mL) (converted)),IC50 (read-out: IC50 (converted))
"O=c1c(O)c(-c2ccc(O)c(O)c2)oc2cc(O)cc(O)c12 [QCT, Quercetin]",56.6 µM,–
"O=C(/C=C/c1ccccc1)c1ccccc1 [T-CHL, Trans-chalcone]",–,328 µM
